This note sets out measurements from ChEMBL document CHEMBL1126980, “New, potent anthelmintic and acaricidal agents: 4-deoxy-4-thio-substituted avermectin derivatives” (Bioorg Med Chem Lett, 1993).

One assay has as its system Tetranychus urticae. The assay is described as follows: Tested for acaricidal efficacy using a Tetranychus urticae (two-spotted spider mite, TSSM) contact assay. It counts as functional. Further details: concentration or dose not given beside the values.
In assay [1] the test system is Ovis aries. In words: Tested for the anthelmintic efficacy against Trichostrongylus colubriformis at 0.1 mg/kg; range is 76-90%. In kind it is functional.
In assay [2] the test system is Ovis aries. The assay is described as follows: Tested for anthelmintic efficacy against Haemonchus contortus at 0.1 mg/kg; range is 91-100%. It counts as functional.
Assay [3] has as its system Ovis aries. In words: Tested for the anthelmintic efficacy against Cooperia curticei at 0.1 mg/kg. In kind it is functional.
For assay [4], the system named is Ovis aries. In words: Tested for the anthelmintic efficacy against Oesphagostomum columbianum at 0.1 mg/kg; range is 91-100%. It counts as functional.
The next assay concerns Caenorhabditis elegans. The assay is described as follows: Tested in vitro for the biological efficacy using Caenorhabditis elegans binding assay. In kind it is functional, organism-based.
Assay [5] has as its system Trichostrongylus colubriformis. In words: Tested in vivo for the biological efficacy using Trichostrongylus colubriformis gerbil assay. It counts as functional.
The subject of assay [6] is Ovis aries. In words: Tested for the anthelmintic efficacy against Trichostrongylus axei at 0.1 mg/kg; range is 51-75%. It counts as functional.
The test system of assay [7] is Ovis aries. The assay is described as follows: Tested for the anthelmintic efficacy against Ostertagia circumcincta at 0.1 mg/kg. In kind it is functional.
A further assay has as its system Artemia salina. The assay is described as follows: Tested in vitro for the biological efficacy using Artemia salina (brine shrimp) immobilization assay. It counts as functional.

By IC50 is commonly meant the concentration at which inhibition is half-maximal.

In brackets after ≈: the same amount, converted by molar mass.

On to `CCC(C)[C@H]1O[C@]2(C=C[C@@H]1C)C[C@@H]1C[C@@H](C/C=C(\C)[C@@H](O[C@H]3C[C@H](OC)[C@@H](O[C@H]4C[C@H](OC)[C@@H](SCCO)[C@H](C)O4)[C@H](C)O3)[C@@H](C)/C=C/C=C3\CO[C@@H]4[C@H](O)C(C)=C[C@@H](C(=O)O1)[C@]34O)O2` (stereo not given in full), for which, in the assay with Tetranychus urticae, the Mortality turned out to be 70%. Further, the Reduction with Ovis aries [1] is recorded as 76%; in the assay on Ovis aries [2] it was 91%; in the assay with Ovis aries [3], under 50%; in the assay on Ovis aries [4], 91%; in the assay on Ovis aries [6], 51%; in the assay with Ovis aries [7], under 50%. For the same compound, in the assay on Caenorhabditis elegans, the half-inhibitory concentration (IC50) came to 0.091 ng/mL (≈ 0.0975 nM). In [5], this compound came in with an ED85 of 0.063 mg/kg. The compound further gave an IC100 in the assay on Artemia salina of 870 ng/mL.
